Measurements published in PubChem BioAssay (NCI).
“And” between values parts separate entries of the source, which are not always exact repeats. Equal entries are not always repeated.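 Each compound was tested at five concentrations against cells in 96-well plates for 48 hours. GI50 marks 50% less growth. At the TGI there is no net growth.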

Assays:
Test in all cases: NCI anticancer screen, dose series, 48 h
A549 NSCLC = tested on: A549 NSCLC
ACHN renal = tested on: ACHN renal
MDA-MB-231 breast = tested on: MDA-MB-231 breast
SF-268 CNS = tested on: SF-268 CNS
SK-MEL-2 melanoma = tested on: SK-MEL-2 melanoma
SN12C renal = tested on: SN12C renal
SNB-19 CNS = tested on: SNB-19 CNS
SW-620 colon = tested on: SW-620 colon
HOP-62 NSCLC = tested on: HOP-62 NSCLC
SR leukemia = tested on: SR leukemia

SMILES | GI50 (A549 NSCLC) | TGI (A549 NSCLC) | GI50 (ACHN renal) | TGI (ACHN renal) | GI50 (MDA-MB-231 breast) | TGI (MDA-MB-231 breast) | GI50 (SF-268 CNS) | TGI (SF-268 CNS) | GI50 (SK-MEL-2 melanoma) | GI50 (SN12C renal) | TGI (SN12C renal) | GI50 (SNB-19 CNS) | TGI (SNB-19 CNS) | GI50 (SW-620 colon) | TGI (SW-620 colon) | GI50 (HOP-62 NSCLC) | TGI (HOP-62 NSCLC) | TGI (SK-MEL-2 melanoma) | GI50 (SR leukemia) | TGI (SR leukemia)
COc1ccc2c(c1)C(=O)CCc1cc(OC)c(OC)c(OC)c1-2 | < 0.01 µM | > 100 µM | 0.0505 µM | > 100 µM | < 0.01 µM | > 100 µM | 0.0652 µM | > 100 µM | < 0.01 µM | < 0.01 µM | > 100 µM | < 0.01 µM | > 100 µM | < 0.01 µM | > 100 µM | – | – | – | – | –
[N-]=[N+]=NCCCn1c2c(c3ccc([N+](=O)[O-])cc3c1=O)C(=O)c1ccccc1-2 | 14.4 µM | > 100 µM | 9.14 µM | > 100 µM | 3.57 µM | 43.2 µM | 79.8 µM | > 100 µM | > 100 µM | 72.5 µM | > 100 µM | – | – | 5.26 µM | > 100 µM | > 100 µM | > 100 µM | > 100 µM | – | –
CC(C)CNc1nc(-c2ccccc2Cl)nc2ccccc12 | 14.1 µM | 33.5 µM | 15.1 µM | 33.8 µM | – | – | 22.1 µM | 40.4 µM | 23.5 µM | 16.5 µM | 30.6 µM | 24.8 µM | 58.5 µM | – | – | 15.8 µM | 29.2 µM | 63.4 µM | 19.7 µM | 44.9 µM
Nc1ncc(-c2cnn(C3CCNCC3)c2)cc1-c1nc2cc(Cl)ccc2o1 | 1.53 µM | 3.11 µM | 1.65 µM | 3.08 µM | 1.66 µM | 3.23 µM | 1.38 µM | 2.8 µM | – | 1.24 µM | 2.71 µM | 1.56 µM | 2.97 µM | 0.363 µM | 1.34 µM | 1.61 µM | 3.1 µM | – | – | –
Cc1ccc(S(=O)(=O)OC2CC=CC2)cc1 | – | > 100 µM | – | > 100 µM | – | – | – | – | – | – | > 100 µM | – | > 100 µM | – | > 100 µM | – | > 100 µM | > 100 µM | – | –
O=C1N/C(=C\[N+](=O)[O-])c2ccccc21 | – | > 100 µM | – | > 100 µM | – | – | – | > 100 µM | – | – | > 100 µM | – | > 100 µM | – | > 100 µM | – | > 100 µM | – | – | > 100 µM
CC1(O)C(C)(O)C2(C)O[Te]3(OC12C)OC1(C)C(C)(O)C(C)(O)C1(C)O3 (configuration not stated) | – | 79 µM | – | > 100 µM | – | – | – | – | – | – | > 100 µM | – | > 100 µM | – | – | – | > 100 µM | > 100 µM | – | 51.3 µM
CCCCCCCCCCCCCCCCCCOC[C@H](COP(=O)(O)O[C@H]1[C@H](O)[C@@H](O)[C@H](O)C[C@H]1O)OC | > 100 µM and 15 µM | > 100 µM and 28.8 µM | > 100 µM and 16.3 µM | > 100 µM and 30 µM | > 100 µM and 13.6 µM | > 100 µM and 27.6 µM | > 100 µM and 15 µM | > 100 µM and 29.7 µM | > 100 µM and 16.3 µM | > 100 µM and 12.2 µM | > 100 µM and 25.2 µM | – | – | – | > 100 µM and 39.3 µM | > 100 µM and 15.7 µM | > 100 µM and 41.5 µM | > 100 µM and 30.2 µM | – | 45.9 µM and 40.8 µM
CCOC(=O)[CH-]C(=O)C12CC3CC(CC(C3)C1)C2.CCOC(=O)[CH-]C(=O)C12CC3CC(CC(C3)C1)C2.CC[O-].CC[O-].[Ti+4] | > 100 µM | > 100 µM | > 100 µM | > 100 µM | – | – | > 100 µM | > 100 µM | – | > 100 µM | > 100 µM | > 100 µM | > 100 µM | > 100 µM | > 100 µM | > 100 µM | > 100 µM | – | > 100 µM | > 100 µM
C#CC1(O)C(COP(=O)(O)OCC(COP(=O)(O)OCC2OC(n3cc(F)c(=O)[nH]c3=O)CC2O)OCCCCCCCCCCCCCCCCCC)OC(n2ccc(N)nc2=O)C1O (configuration not stated) | 0.117 µM | > 68.3 µM | 0.149 µM | > 100 µM | 0.32 µM | – | 0.102 µM | 9.45 µM | 0.481 µM | < 0.0229 µM | 1.93 µM | 0.313 µM | > 57.2 µM | 0.0269 µM | > 100 µM | 0.0631 µM | 10.6 µM | 6.24 µM | – | –
O=C(Nc1ccc(Cl)cc1)C1C(=O)C(=O)N(c2ccc(Cl)cc2)C1=O (configuration not stated) | – | > 100 µM | – | > 100 µM | – | – | – | > 100 µM | – | – | > 100 µM | – | > 100 µM | – | > 100 µM | – | – | > 100 µM | – | > 100 µM
O=C1NC(=S)S/C1=C/c1ccc2c(c1)OCO2 | > 100 µM | > 100 µM | > 100 µM | > 100 µM | > 100 µM | > 100 µM | > 100 µM | > 100 µM | – | > 100 µM | > 100 µM | > 100 µM | > 100 µM | > 100 µM | > 100 µM | > 100 µM | > 100 µM | – | > 100 µM | > 100 µM
C=CC[P@]1(=O)O[C@H](c2ccccc2)[C@H](C)N1C | – | > 100 µM | – | > 100 µM | – | – | – | > 100 µM | – | – | > 100 µM | – | > 100 µM | – | > 100 µM | – | – | – | – | > 100 µM
CCCCCCCCCCCCCP(=O)(O)O | – | > 100 µM | – | > 100 µM | – | – | – | > 100 µM | – | – | > 100 µM | – | > 100 µM | – | > 100 µM | – | > 100 µM | > 100 µM | – | –
O=C(O)CCCc1ccc2ccc3ccccc3c2c1 | – | > 100 µM | – | > 100 µM | – | > 100 µM | – | > 100 µM | – | – | > 100 µM | – | > 100 µM | – | – | – | > 100 µM | > 100 µM | – | > 100 µM
COc1ccc(C=O)cc1O[Si](C)(C)C(C)(C)C | – | > 100 µM | – | > 100 µM | – | – | – | > 100 µM | – | – | > 100 µM | – | > 100 µM | – | > 100 µM | – | > 100 µM | > 100 µM | – | –
N#CCC(=O)N/N=C1/C(=O)N(c2ccc(Cl)cc2)C(=O)C(=O)C1c1nc2ccccc2s1 (configuration not stated) | – | > 100 µM | – | > 100 µM | – | – | – | > 100 µM | – | – | > 100 µM | – | > 100 µM | – | > 100 µM | – | > 100 µM | > 100 µM | – | –
NC1=NN(c2ccccc2)C(=O)C1C(=O)CCC(=O)Nc1cccc(Cl)c1 (configuration not stated) | – | > 100 µM | – | > 100 µM | – | – | – | > 100 µM | – | – | > 100 µM | – | > 100 µM | – | > 100 µM | – | > 100 µM | > 100 µM | – | –
NC(CCCC(N)P(=O)(O)O)P(=O)(O)O (configuration not stated) | – | > 100 µM | – | > 100 µM | – | – | – | – | – | – | > 100 µM | – | – | – | > 100 µM | – | – | – | – | –
